Measurements: patent US20240142437A1, “METHODS TO PREVENT TERATOGENICITY OF IMID LIKE MOLECULES AND IMID BASED DEGRADERS/PROTACS” (DANA-FARBER CANCER INSTITUTE, INC., priority 2017, published 2024)

Tests used:
[1] = target: T1, SALL4 (Homo sapiens, UniProt Q96SW2+Q9UJQ4); test: Western blot of SALL4 protein levels in human cell lines; assay type: cell-based; details: for effect of co-treatment on IMiD-induced SALL4 degradation: co-treatment with thalidomide, 5 μM bortezomib, 5 μM MLN4924, 0.5 μM MLN7243, HEK293T, SK-N-DZ cells; for SALL4 degradation in CRBN−/− cells: CRBN−/− Kelly and HEK293T cells; for SALL4 protein levels by western blot: 24 hours
T1 construct: endogenous in cells; host or cells: Kelly, SK-N-DZ, HEK293T (western blot)
Protocol: HEK293T cells were cultured in DMEM supplemented with 10% dialyzed fetal bovine serum (FBS) and 2 mM L-Glutamine. SK-N-DZ cells were cultured in DMEM supplemented with 10% dialyzed FBS, 0.1 mM Non-Essential Amino Acids (NEAA) and 2 mM L-Glutamine. H661, MM1s and Kelly cells were cultured in RPMI1640 supplemented with 10% dialyzed FBS. H9 hESC cells were cultured in Essential 8 (Gibco) media on Matrigel-coated nunc tissue culture plates.
(§1) Samples were run on 4-20%, AnyKD or 10% (in-vitro ubiqutination assay) SDS-PAGE Gels (Bio-rad), and transferred to PVDF membranes using the iBlot 2.0 dry blotting system (Thermo Fisher Scientific). Membranes were blocked with LiCor blocking solution (LiCor), and incubated with primary antibodies overnight, followed by three washes in LiCor blocking solution and incubation with secondary antibodies for one hour in the dark. After three final washes, the membranes were imaged on a LiCor fluorescent imaging station (LiCor). When Anti-mouse IgG, HRP Antibody was used, after three washes, the membranes were incubated with Amersham ECL Prime Western Blotting Detection Reagent for 1 minute and subjected to imaging by Amersham Imager 600 (GE).

[2] = tested on: IMiD-dependent CRL4^CRBN substrates; test: TMT quantification mass spectrometry proteomics, IMiD-dependent neo-substrates (hESC, Kelly, SK-N-DZ, MM1s cells); assay type: cell-based, human; details: for substrate specificity: proteins degraded across cell lines: hESC, MM1s, Kelly, SK-N-DZ cells expressing detectable levels of the proteins; for number of substrates identified (rank order): proteomics, treatment with different IMiDs
Protocol: Since degradation is mediated through CRL4^CRBN, and because CRBN expression levels are high in the central nervous system (CNS), the effects of IMiDs were assessed in two different neuroblastoma cell lines, Kelly and SK-N-DZ cells, as well as the commonly used multiple myeloma cell line, MM1s, as a control.
Proteins were precipitated using methanol/chloroform.

[3] = tested on: SALL4 mRNA; test: Quantitative RT-PCR of total SALL4 mRNA in H9 hES cells; assay type: cell-based, human; details: 10 μM thalidomide, 24 hours, normalized to GAPDH
Protocol: RNA was isolated using the RNeasy Plus mini kit (Qiagen) and cDNA created by reverse transcription using ProtoScript II reverse transcriptase (NEB) following the manufacturer's instructions. The following primer sets from IDT were used with SYBR Green Master Mix (Applied Biosystems) to probe both GAPDH and total SALL4 levels:
Analysis was performed on a CFX Connect Real-Time PCR System (Bio-Rad) in a white 96-well PCR plate. Relative expression levels were calculated using the […] method.

[4] = target: SALL4 ZnF domains and DDB1ΔB-CRBN (Homo sapiens, UniProt Q96SW2+Q9UJQ4); test: TR-FRET in vitro CRBN binding assay; details: SALL4ZnF2; in accordance with cellular potency in degradation of SALL4
Protocol: Before TR-FRET measurements were conducted, the reactions were incubated for 15 minutes at RT. […] The TR-FRET signal of each data point was extracted by calculating the 520/490 nm ratios.

[5] = tested on: Flag-hsSALL4; test: Western blot of transiently transfected Flag-hsSALL4 (WT or mutant) in Kelly cells; assay type: cell-based, human; details: 24 hours
Protocol: as §1, with “Cells were treated with compounds as indicated and incubated for 24 hours, or as indicated. Samples” for “Samples”
(§2) hsCRBN, hsSALL4, mmSALL4 and drSALL4 were PCR amplified and cloned into a pNTM-Flag based vector. Mutagenesis was performed using the Q5 site-directed mutagenesis kit (NEB, USA) with primers designed using the BaseChanger web server (http://nebasechanger.neb.com/).
For transient transfection, 0.2 million cells were seeded per well in a 12 well plate on day one. On day two, cells were transfected with 200-300 ng of plasmid (pNTM-Flag containing gene of interest) using 2 μL of lipofectamine 2000 transfection reagent (Invitrogen). On day three, desired concentration of IMiD was added to each well and cells were harvested after 24 hours for western blot analysis using the protocol described above.

[6] = target: T2, mmSALL4 (Mus musculus, UniProt Q8BX22); test: Western blot of mmSALL4 in mouse embryonic stem cells; assay type: cell-based; details: mESC, increasing concentrations, 24 hours
T2 construct: endogenous in cells; host or cells: TC1 mouse embryonic stem cells
Protocol: HEK293T cells were cultured in DMEM supplemented with 10% dialyzed fetal bovine serum (FBS) and 2 mM L-Glutamine. SK-N-DZ cells were cultured in DMEM supplemented with 10% dialyzed FBS, 0.1 mM Non-Essential Amino Acids (NEAA) and 2 mM L-Glutamine. H661, MM1s and Kelly cells were cultured in RPMI1640 supplemented with 10% dialyzed FBS. H9 hESC cells were cultured in Essential 8 (Gibco) media on Matrigel-coated nunc tissue culture plates. TC1 mouse embryonic stem cells (mESCs) were adapted to gelatin cultures and fed with KO-DMEM (Gibco) supplemented with 15% stem cell-qualified fetal bovine serum (FBS, Gemini), 2 mM L-glutamine (Gibco), 20 mM HEPES (Gibco), 1 mM sodium pyruvate (Gibco), 0.1 mM of each non-essential amino acids (Gibco), 0.1 mM 2-mercaptoethanol (Sigma), […] mLIF (Gemini).
Cells were treated with compounds as indicated and incubated for 24 hours, or as indicated. Samples were run on 4-20%, AnyKD or 10% (in-vitro ubiqutination assay) SDS-PAGE Gels (Bio-rad), and transferred to PVDF membranes using the iBlot 2.0 dry blotting system (Thermo Fisher Scientific). Membranes were blocked with LiCor blocking solution (LiCor), and incubated with primary antibodies overnight, followed by three washes in LiCor blocking solution and incubation with secondary antibodies for one hour in the dark. […]

[7] = target: Flag-mmSALL4 (UniProt Q8BX22+Q96SW2); test: Western blot of transiently transfected Flag-mmSALL4 in Kelly cells; assay type: cell-based, mouse; details: Y415F, P418S, I419V, L430F, Q435H
Protocol: as §1, with “Cells were treated with compounds as indicated and incubated for 24 hours, or as indicated. Samples” for “Samples”
as §2
For transient transfection, 0.2 million cells were seeded per well in a 12 well plate on day one. On day two, cells were transfected with 200-300 ng of plasmid (pNTM-Flag containing gene of interest) using 2 μL of lipofectamine 2000 transfection reagent (Invitrogen). […]

[8] = cited from earlier work; for plasma half-life (t1/2) / Cmax: typical dose of 200-400 mg, 25 mg, or 2 mg for thalidomide, lenalidomide, or pomalidomide; for Cmax: read-out: maximum plasma concentration (Cmax)
[9] = Kelly, SK-N-DZ, HEK293T and H661 cells, increasing concentrations

T1 sequence (Q9UJQ4 whole entry): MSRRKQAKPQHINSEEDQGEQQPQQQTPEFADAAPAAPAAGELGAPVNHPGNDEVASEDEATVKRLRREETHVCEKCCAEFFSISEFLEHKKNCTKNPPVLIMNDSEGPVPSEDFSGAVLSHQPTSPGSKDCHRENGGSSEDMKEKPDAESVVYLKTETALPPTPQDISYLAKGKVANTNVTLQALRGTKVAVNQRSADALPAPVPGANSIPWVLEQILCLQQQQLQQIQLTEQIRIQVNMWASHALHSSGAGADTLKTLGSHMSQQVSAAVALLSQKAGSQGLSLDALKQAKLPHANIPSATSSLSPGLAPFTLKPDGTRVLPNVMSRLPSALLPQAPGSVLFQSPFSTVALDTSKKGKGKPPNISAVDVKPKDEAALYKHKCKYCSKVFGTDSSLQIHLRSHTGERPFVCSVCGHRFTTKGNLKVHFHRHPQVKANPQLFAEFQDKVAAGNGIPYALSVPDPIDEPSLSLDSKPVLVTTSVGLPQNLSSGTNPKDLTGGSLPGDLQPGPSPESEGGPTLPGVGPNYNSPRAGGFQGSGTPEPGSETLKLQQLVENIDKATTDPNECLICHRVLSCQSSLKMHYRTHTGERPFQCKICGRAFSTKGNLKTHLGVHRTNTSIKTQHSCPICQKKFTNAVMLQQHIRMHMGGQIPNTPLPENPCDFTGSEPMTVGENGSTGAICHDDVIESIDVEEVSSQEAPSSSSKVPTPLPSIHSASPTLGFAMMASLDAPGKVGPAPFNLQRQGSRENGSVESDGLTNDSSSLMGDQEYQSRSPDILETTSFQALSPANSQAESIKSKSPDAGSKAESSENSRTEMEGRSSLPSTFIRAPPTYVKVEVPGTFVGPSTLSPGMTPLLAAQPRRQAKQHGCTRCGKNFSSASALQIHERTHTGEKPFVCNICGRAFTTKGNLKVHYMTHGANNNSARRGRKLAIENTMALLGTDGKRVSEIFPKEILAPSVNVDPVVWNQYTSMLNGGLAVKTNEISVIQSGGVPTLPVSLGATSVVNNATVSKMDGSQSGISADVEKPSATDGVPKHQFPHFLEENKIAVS
T1 sequence (Q96SW2 whole entry): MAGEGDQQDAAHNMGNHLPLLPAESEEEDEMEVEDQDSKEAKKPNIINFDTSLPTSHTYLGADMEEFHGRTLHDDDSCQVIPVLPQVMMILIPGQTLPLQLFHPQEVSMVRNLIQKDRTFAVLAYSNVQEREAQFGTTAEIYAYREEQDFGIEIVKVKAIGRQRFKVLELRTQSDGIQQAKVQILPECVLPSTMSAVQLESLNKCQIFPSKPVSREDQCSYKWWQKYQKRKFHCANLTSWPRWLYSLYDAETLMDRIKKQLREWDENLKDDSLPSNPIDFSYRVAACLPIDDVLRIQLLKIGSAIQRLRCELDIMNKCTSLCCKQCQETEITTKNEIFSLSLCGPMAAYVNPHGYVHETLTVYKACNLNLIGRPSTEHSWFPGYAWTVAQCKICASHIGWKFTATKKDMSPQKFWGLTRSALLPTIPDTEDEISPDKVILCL
T1 sequence (Q16531 2-1140 partner limits assumed): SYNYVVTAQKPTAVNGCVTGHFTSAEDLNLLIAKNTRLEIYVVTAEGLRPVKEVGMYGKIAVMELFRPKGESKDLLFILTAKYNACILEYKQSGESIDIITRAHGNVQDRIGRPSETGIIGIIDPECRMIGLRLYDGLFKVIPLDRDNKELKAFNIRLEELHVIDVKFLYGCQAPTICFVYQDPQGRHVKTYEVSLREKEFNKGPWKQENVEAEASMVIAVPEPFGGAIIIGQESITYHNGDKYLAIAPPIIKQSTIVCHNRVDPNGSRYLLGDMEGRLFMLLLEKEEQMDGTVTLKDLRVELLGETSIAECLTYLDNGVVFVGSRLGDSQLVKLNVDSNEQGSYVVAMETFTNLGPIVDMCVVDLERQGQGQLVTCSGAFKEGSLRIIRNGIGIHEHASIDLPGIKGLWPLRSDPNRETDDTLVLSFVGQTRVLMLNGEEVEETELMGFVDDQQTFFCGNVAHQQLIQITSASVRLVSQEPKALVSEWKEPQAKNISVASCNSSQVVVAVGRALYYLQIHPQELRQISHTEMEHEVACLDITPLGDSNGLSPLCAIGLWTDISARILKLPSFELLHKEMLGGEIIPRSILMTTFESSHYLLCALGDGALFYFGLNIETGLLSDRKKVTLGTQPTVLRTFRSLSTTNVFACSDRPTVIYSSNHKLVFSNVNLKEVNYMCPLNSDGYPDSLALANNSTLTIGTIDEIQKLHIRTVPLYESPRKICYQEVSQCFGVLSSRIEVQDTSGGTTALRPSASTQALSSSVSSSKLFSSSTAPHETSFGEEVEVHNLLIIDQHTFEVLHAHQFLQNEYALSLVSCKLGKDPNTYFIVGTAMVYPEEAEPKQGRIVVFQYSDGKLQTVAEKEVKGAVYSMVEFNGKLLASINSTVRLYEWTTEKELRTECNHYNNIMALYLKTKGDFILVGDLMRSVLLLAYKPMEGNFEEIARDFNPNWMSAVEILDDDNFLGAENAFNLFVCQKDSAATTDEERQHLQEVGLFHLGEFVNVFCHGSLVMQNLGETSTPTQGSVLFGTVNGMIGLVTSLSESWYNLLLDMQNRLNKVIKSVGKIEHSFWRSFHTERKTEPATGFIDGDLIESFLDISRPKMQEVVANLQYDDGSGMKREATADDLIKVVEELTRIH
Sequence of SALL4 ZnF domains and DDB1ΔB-CRBN (Q96SW2 whole entry, stated change not applied, the tested form may be a part): as the sequence (Q96SW2 whole entry) above
Sequence of SALL4 ZnF domains and DDB1ΔB-CRBN (Q9UJQ4 402-436, stated change not applied): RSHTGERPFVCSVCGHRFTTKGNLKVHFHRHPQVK
Sequence of Flag-mmSALL4 (Q8BX22 whole entry): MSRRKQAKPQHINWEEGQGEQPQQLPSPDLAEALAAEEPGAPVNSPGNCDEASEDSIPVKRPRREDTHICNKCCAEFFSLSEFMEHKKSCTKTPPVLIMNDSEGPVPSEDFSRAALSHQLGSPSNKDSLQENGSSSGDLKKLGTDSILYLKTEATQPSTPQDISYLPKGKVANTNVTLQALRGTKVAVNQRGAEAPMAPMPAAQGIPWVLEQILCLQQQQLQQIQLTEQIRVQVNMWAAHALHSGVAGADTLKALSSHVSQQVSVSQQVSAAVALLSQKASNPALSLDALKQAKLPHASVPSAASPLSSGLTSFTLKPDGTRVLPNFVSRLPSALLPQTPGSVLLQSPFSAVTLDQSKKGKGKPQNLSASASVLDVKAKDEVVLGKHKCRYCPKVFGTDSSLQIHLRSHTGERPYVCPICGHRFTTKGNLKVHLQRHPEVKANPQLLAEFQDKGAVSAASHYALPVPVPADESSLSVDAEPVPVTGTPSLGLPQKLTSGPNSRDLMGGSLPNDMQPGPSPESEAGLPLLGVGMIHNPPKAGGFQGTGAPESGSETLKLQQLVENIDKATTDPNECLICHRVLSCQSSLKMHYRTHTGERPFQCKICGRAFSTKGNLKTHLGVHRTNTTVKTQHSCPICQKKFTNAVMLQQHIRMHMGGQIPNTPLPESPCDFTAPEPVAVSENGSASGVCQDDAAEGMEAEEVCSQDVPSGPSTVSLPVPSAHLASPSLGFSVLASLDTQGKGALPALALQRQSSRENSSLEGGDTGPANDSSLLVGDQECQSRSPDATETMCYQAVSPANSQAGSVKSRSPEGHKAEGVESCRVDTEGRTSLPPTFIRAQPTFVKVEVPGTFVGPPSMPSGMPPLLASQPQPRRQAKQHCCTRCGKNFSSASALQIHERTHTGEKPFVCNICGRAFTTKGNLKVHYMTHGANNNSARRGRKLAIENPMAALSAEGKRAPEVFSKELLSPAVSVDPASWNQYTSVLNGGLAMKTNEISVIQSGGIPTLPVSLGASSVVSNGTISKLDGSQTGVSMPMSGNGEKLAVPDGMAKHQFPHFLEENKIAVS
Sequence of Flag-mmSALL4 (Q96SW2 whole entry): as the sequence (Q96SW2 whole entry) above
Sequence of Flag-mmSALL4 (Q16531 2-1140 partner limits assumed): as the sequence (Q16531 2-1140 partner limits assumed) above

Q: For `NS(=O)(=O)OC[C@H]1C[C@@H](Nc2ccnc3cc(-c4cccc(SC(F)(F)F)c4)nn23)[C@H](O)[C@@H]1O` [MLN7243], which “effect of co-treatment on IMiD-induced SALL4 degradation” value ([1]; Kelly) is on record?
A: Its value is “abrogated”.

Q: With `O=C1CCC(N2C(=O)c3ccccc3C2=O)C(=O)N1` (stereo not shown) [thalidomide, 2-(2,6-dioxopiperidin-3-yl)-1H-isoindole-1,3(2H)-dione] as the compound, how does the “substrate specificity: proteins degraded across cell lines” value [2] read?
A: Its value is “robust degradation of the zinc finger transcription factors ZNF692, SALL4, and the ubiquitin ligase RNF166”.

Q: And the “number of substrates identified (rank order)” value [2]?
A: The value was “Thal <Len<<Pom”.

Q: And the “SALL4 degradation at plasma-relevant concentration” value ([1]; 10 μM)?
A: Its value is “effective degradation of SALL4”.

Q: And the “SALL4 degradation in CRBN−/− cells” value ([1]; increasing concentrations)?
A: Its value is “no degradation of SALL4 was observed”.

Q: What about the “SALL4 protein levels by western blot” value ([1]; H9 hESC, increasing doses) of the same compound?
A: Its value is “dose dependent decrease in protein levels”.

Q: And the “SALL4 protein levels by western blot” value [1, 9]?
A: The value was “dose-dependent decrease”.

Q: And the “SALL4 mRNA level” value [3]?
A: Its value is “does not reduce the level of SALL4 mRNA, but rather upregulates SALL4 mRNA”.

Q: And the “SALL4 mRNA level” value ([3]; listed as Thalidomide)?
A: Its value is “did not influence the expression of SALL4 mRNA”.

Q: What about the “rank order in binding observed with ZnF2” value [4] of the same compound?
A: Its value is “Pom >Thal>>Len”.

Q: And the “degradation of wild type Flag-hsSALL4” value [5]?
A: The value was “readily degraded”.

Q: What about the “degradation of Flag-SALL4 with G416A or G416N mutations in ZnF2” value ([5]; thalidomide) of the same compound?
A: Its value is “rendered SALL4 stable”.

Q: What about the “degradation of Flag-SALL4 with G600A or G600N mutations in ZnF4” value ([5]; thalidomide) of the same compound?
A: Its value is “readily degraded”.

Q: What about the “degradation of mmSALL4” value [6] of the same compound?
A: The value was “does not promote degradation of mmSALL4”.

Q: And the “degradation of mmSALL4 with humanized ZnF2 domain” value [7]?
A: Its value is “degradation was induced”.

Q: And the “plasma concentration in humans” value ([8]; human, in vivo)?
A: The value was ≤ 10 µM.

Q: What about the “plasma half-life (t1/2)” value [8] of the same compound?
A: Its value is 6 to 8 h.

Q: And the Cmax [8]?
A: The Cmax was 5 to 10 µM.

Q: For `CC(C)C[C@H](NC(=O)[C@H](Cc1ccccc1)NC(=O)c1cnccn1)B(O)O` [bortezomib], which “effect of co-treatment on IMiD-induced SALL4 degradation” value ([1]; Kelly) is on record?
A: The value was “abrogated”.

Q: Which results are given for `Nc1cccc2c1C(=O)N(C1CCC(=O)NC1=O)C2=O` (stereo not shown) [pomalidomide]?
A: further proteins degraded in proteomics ([2]; H9 hESC, 5 hours, 5 μM lenalidomide, 1 μM pomalidomide): degradation of additional targets including the previously characterized zinc finger protein ZFP91 (An et al., 2017), and the largely uncharacterized proteins ZBTB39, FAM83F, WIZ, RAB28, and DTWD1; substrate specificity: proteins degraded across cell lines [2]: robust degradation of ZBTB39, ZFP91, DTWD1, and ZNF653; number of substrates identified (rank order) [2]: Thal <Len<<Pom; SALL4 degradation in CRBN−/− cells ([1]; increasing concentrations): no degradation of SALL4 was observed; SALL4 protein levels by western blot ([1]; H9 hESC, increasing doses): dose dependent decrease in protein levels; earliest time of SALL4 degradation post-treatment ([1]; Kelly cells, 1 or 5 μM pomalidomide): 4 h; SALL4 protein levels by western blot [1, 9]: dose-dependent decrease; rank order in binding observed with ZnF2 [4]: Pom >Thal>>Len; degradation of mmSALL4 [6]: does not promote degradation of mmSALL4; plasma half-life (t1/2) [8]: ~9 h; Cmax [8]: 0.05 µM

Q: With `NS(=O)(=O)OC[C@@H]1C[C@@H](n2ccc3c(N[C@H]4CCc5ccccc54)ncnc32)C[C@@H]1O` [MLN4924] as the compound, how does the “effect of co-treatment on IMiD-induced degradation of targets (rescue proteomics)” value ([2]; SK-N-DZ cells, 1 μM pomalidomide + 5 μM MLN4924, 5 hours) read?
A: The value was “fully abrogated IMiD-induced degradation of targets”.

Q: And the “effect of co-treatment on IMiD-induced SALL4 degradation” value ([1]; Kelly)?
A: The value was “abrogated”.

Q: Which “plasma half-life (t1/2)” value [8] does the source give for `Nc1cccc2c1CN(C1CCC(=O)NC1=O)C2=O` (stereo not shown) [lenalidomide] here?
A: Its value is ~3 h.

Q: For `O=C1CC[C@H](N2Cc3c(OCc4ccc(CN5CCOCC5)cc4)cccc3C2=O)C(=O)N1` [CC-220], which “degradation of ZnF targets including SALL4 (proteomics)” value ([2]; SK-N-DZ cells, 0.1 μM CC-220, 1 μM dBET57, 5 hours (FIG. 6C)) is on record?
A: Its value is “effective inducers of ZnF targets including SALL4 degradation”.
